Melting point data for 88 compounds are collected here from a melting point compilation (Tetko et al.; mined from patent text by program, amines drawn as free bases though some values may be those of a salt).

For `CN(C)S(=O)(=O)c1ccc2c(c1)C(O)c1ccccc1C=C2` (stereo not drawn), the melting point was 150 to 152 °C. Take `CCOC(=O)CCCOc1c(Br)cc(Br)c(C(N)=O)c1Br`: the melting point lay within 138 to 140 °C. Compound `Cc1cccc2oc(=O)c(=O)[nH]c12` came in with a melting point of 247 to 249 °C. With `COC(=O)CCCC(=N)Nc1[nH]c2ccccc2c1C(=O)OC`, the melting point amounted to 95 °C. On to `Nc1n[nH]c2c1c1cc(Cl)c(Cl)cc1n2C1OC(CO)C(O)C1O` (stereo not drawn), for which the melting point was 198 to 201 °C. To `COc1ccc2c(c1)C13CCCC4OC41C(C2)N(C(=O)C1CC1)CC3` (stereo not drawn) belongs 134 to 136 °C; to `Cc1cc2c(c(C3=NNC(=O)CC3)c1)OCC(=O)N2`, 266 to 270 °C.

For the compound `COc1ccc2c(ccc3nc(C(=O)O)cn32)c1`, the melting point was 265 to 266 °C. The same measure for `CCCc1c(C(=O)C(C)C)c2ccc(C(=O)O)cc2n1Cc1ccccc1I`: 210 °C; for `CCOC(=O)C=C(C)C=CC=C(C)C=Cc1c(Cl)cc(OC)c(C)c1Cl`: 100 to 101 °C. To `COc1ccc(C(=O)CCC2CCN(C(C)=O)CC2)cc1N` belongs 101 to 103 °C.

Take `Nc1ccc(Nc2c(NCc3ccco3)cc(C(=O)O)cc2S(=O)(=O)Nc2ccccc2N)cc1`: the melting point is 182 °C. In turn, `NCCNc1cc(NCCO)c(Cl)cc1[N+](=O)[O-]` returned a melting point of 160 °C. The same measure for `Cc1c(C(N)=O)oc2c(C(=O)NCCCN3CCN(c4cc(Cl)ccc4OS(=O)(=O)C(F)(F)F)CC3)cccc2c1=O`: 150 to 156 °C; for `CC(C)(C)C(=O)c1ccc(C(=O)NC(=O)c2ccc(F)cc2)cc1`: 100 to 101 °C; for `O=S(=O)(c1ccccc1)n1c(Cc2cccc(-c3cc4ccccc4n3S(=O)(=O)c3ccccc3)c2)cc2ccccc21`: 76 to 78 °C. To `Cc1sc(C(=O)O)cc1NC(=O)Cc1ccccc1` belongs 249 to 250 °C; to `Oc1ccc2c(c1)CCCC(c1ccccc1)=C2c1ccc(OCCCCCSCc2ccccn2)cc1`, 159 °C. The same measure for `COc1ccc2c(c1)C(c1ccc([N+](=O)[O-])cc1)=Nn1c(C)nnc1C2`: 192 to 194 °C; for `Cc1cc(CC2(Cc3ccnc(C)c3)c3ccccc3-c3ncccc32)ccn1`: 177 to 179 °C; for `COc1cc(C(F)(F)F)ccc1-c1ccc2c(c1)S(=O)(=O)NC(C1CCCCC1)N2` (stereo not drawn): 255 to 257 °C. In the case of `O=C(CCC(=O)N1CCC[C@H]1C(=O)O)c1ccc(Br)s1`, the melting point was 166 to 168 °C. To `c1ccc(-c2c[nH]c([C@@H](Cc3c[nH]c4ccccc34)Nc3ncccn3)n2)cc1` belongs 138 to 140 °C; to `O=C(CCCN1CCCCC1)c1ccc2[nH]c3ccc(C(=O)CCCN4CCCCC4)cc3c2c1`, 171 to 173 °C. To `COc1ccc(OC)c2c1C(=O)c1c(O)ccc(O)c1C2=O` belongs 297 to 300 °C; to `Cc1cnc2c(NC(=O)c3c(Cl)cccc3Cl)ccc(Br)c2c1`, 238 to 239 °C. To `COc1ccc(CC(=O)N[C@@H](C)CO)cc1OC` belongs 122 to 125 °C; to `CC(C)(C)CC(C)(C)c1ccc(C(=O)O)cc1`, 153 to 155 °C; to `Cc1c(C(=O)Nc2ccc(N3CCC(N4CCOCC4)CC3)c(C#N)c2)cnn1-c1ccc(Br)cc1`, 250 to 252 °C. Turning to `CC1CCCN1CCCN1CCN(CCN2CCCC2C)C1=C(C#N)C#N` (stereo not drawn), the melting point lay in the range of 69 to 71 °C. To `O=C(NCCO)c1cccc(-c2ccc3c(c2)C(Oc2ccc(Cl)cc2Cl)CCC3)c1` (stereo not drawn) belongs 171 to 172 °C; to `CCCCn1c(=O)c2cn(S(=O)(=O)c3cc(Cl)c(Cl)s3)nc2n(CCCC)c1=O`, 181 to 182 °C; to `CCCCCCCOc1ccc(C(=O)Nc2ccccc2OCc2nnn[nH]2)cc1`, 148 to 150 °C. The same measure for `CCOC(=O)c1ccc(NC(=O)c2ccc(OC)c(OC)c2)c2ccccc12`: 144 to 146 °C. To `O=C(c1ccc(-c2ccccc2)cc1)c1ccc2n1Cc1ccccc1N(C(=O)COc1ccc(Cl)cc1)C2` belongs 155 to 157 °C; to `CC(c1ccccc1N1CCCCC1)C(C(N)=O)c1ccc(C(=O)N2CCOCC2)cc1` (stereo not drawn), 148 to 150 °C; to `Cc1c(C(=O)Nc2ccc(N3CCC(N(C)CCO)CC3)c(C#N)c2)cnn1-c1ccc(Cl)cc1`, 186 °C.

`NOC(C=CCBr)C(=O)O` (stereo not drawn) yielded a melting point of 53 to 55 °C.

As for `CS(=O)(=O)c1c[nH]c(=O)c(I)c1`, the melting point was in the range of 273 to 276 °C.

`COc1ccc(-c2ccccn2)c(NC(=O)CC(C)NC(=O)OC(C)(C)C)c1` (stereo not drawn) displayed a melting point of 143 to 145 °C. The same measure for `Nc1cc(-c2cccnc2)c[nH]c1=O`: 280 to 290 °C; for `CCOC(=O)c1ccc(C=C(C)C)c(OC)c1`: 42 °C. The same measure for `Cn1c(=O)c2cccnc2n(-c2cccc([N+](=O)[O-])c2)c1=O`: 234 to 235 °C; for `C=CCNc1cc(Oc2cc(Cl)c(Br)cc2Cl)c(Cl)cc1[N+](=O)[O-]`: 102 °C; for `Cc1cc(NC23N=CN=C2C=NC(N2CCC(C)CC2)=N3)[nH]n1` (stereo not drawn): above 300 °C.

Turning to `CC(=O)Oc1cccnc1-n1ccnc1SCc1ccccc1N1CCOCC1`, the melting point fell in the range of 89 to 91 °C. The same measure for `CCOC(=O)c1cn(C2CC2)c2cc(C3=CCN(C(C)=O)CC3)c(F)cc2c1=O`: 190 to 192 °C; for `CC(C)(C(Cl)c1ccc2c(c1)OCO2)[N+](=O)[O-]` (stereo not drawn): 63 to 66 °C. The same measure for `O=C(O)C1CCc2onc(-c3ccc(Cl)cc3)c2C1` (stereo not drawn): 203 to 205 °C; for `CCOC(=O)CS(=O)(=O)C=C1SC=CS1`: 134 to 136 °C.

Compound `O=C(NC1N=C(c2ccccc2F)c2ccccc2NC1=O)c1cc2ccccc2o1` (racemic) gave a melting point of 289 to 291 °C. The same measure for `Nc1sc2c(c1C(=O)c1ccc(Cl)cc1)CCN(C(=O)OCc1ccccc1)C2`: 60 to 62 °C. In the case of `CSc1nc(Cl)c2sccc2n1`, the melting point was in the range of 115 to 118 °C. The same measure for `C#Cc1cnc2sc(SCCCCCCC)nn2c1=O`: 140 to 142 °C. To `CCCCc1ccc(CC(=O)c2ccccc2)cc1` belongs 53 to 55 °C; to `CC(C)(C)[Si](C)(C)O[C@@H](CCCC(=O)N1C(=O)OC[C@@H]1Cc1ccccc1)c1ccc(F)cc1`, 87.6 °C; to `Cc1cc(-c2nnc3c4ccccc4c(OCc4ccccn4)nn23)no1`, 234 to 236 °C. The same measure for `CC1NC(c2ccc(Cl)cc2)=NO1` (stereo not drawn): 110 to 112 °C. `O=[N+]([O-])c1ccc2c(c1)C(=NO)CCO2` had a melting point of 173 to 178 °C. To `CC(=O)SC(CC(=O)c1ccc(C)cc1)C(=O)O` (stereo not drawn) belongs 81 to 85 °C; to `CCCCOCCOc1ccc(-c2cnc(N3CCC(COC(C)=O)C3)c(/C=C(\C)C(=O)O)c2)cc1` (stereo not drawn), 82.2 to 84.2 °C. In the case of `Cc1ccc(S(=O)(=O)N2C[C@H](O)C[C@H]2CO)cc1`, the melting point amounted to 127 °C. The same measure for `CC[C@@H]1O[C@](C#CC2CC2)(C(F)(F)F)c2cc(F)ccc2NC1=O` (relative stereo): 186 °C; for `Cc1nnc(-c2ccnc(Nc3cc(F)ccc3F)c2)o1`: 202 to 203 °C. To `COC(=O)[C@H](O)[C@@H](N)c1ccc(F)cc1` belongs 105 °C; to `CC1OC1C1CC(O)C2(C)CCC3C(CCC4CC(OC5CCCCO5)CC(C)C43C)C12` (stereo not drawn), 172 to 174 °C. To `O=C(NC1CCC(CCN2CCN(c3nccc4c3OCC4)CC2)CC1)C1CCCO1` (racemic) belongs 145 °C; to `Cc1cc(C)c2cc3c(cc2n1)C(NCCc1ccccc1)C(O)C(C)(C)O3` (stereo not drawn), 144 to 147 °C. The compound `CCOc1ccc(-c2nc(CCC(=O)c3nccs3)cs2)cc1OCC` yielded a melting point of 93.1 to 94.4 °C. As for `CCOCc1nc2c(N)nc3cc(Br)ccc3c2n1CC1CCN(S(C)(=O)=O)CC1`, the melting point fell in the range of 233 to 234 °C. The same measure for `Cn1cnc2c1c(=O)n(CCCN1CCN(c3ccc(Cl)nn3)CC1)c(=O)n2C`: 285 to 287 °C. To `Clc1ccc(Cl)c(CN2CCNc3ncc(-c4ccc(Cl)nc4)cc32)c1` belongs 205 °C; to `COC(=O)C=C1c2ccccc2C=C(OC)c2sccc21`, 124 to 125 °C; to `CC(C)C(=O)Nc1cccc(-c2ccnc3c(C(=O)c4cccs4)cnn23)c1`, 180 to 181 °C. To `c1ccc(CC[C@H]2CNCCN2)cc1` belongs 114 to 115 °C; to `CCCCOc1ccc(C[C@H](NC(=O)[C@H]2CC[C@H](C(C)C)CC2)C(=O)O)cc1`, 120 to 121 °C; to `CCc1ccc2nnc(C(=O)Oc3ccccc3)cc2c1`, 143 to 145 °C. The compound `Cn1c(=O)nc(-c2ccccc2F)c2ccsc21` displayed a melting point of 222 to 223 °C. Regarding `CC(C)C(=O)NCC(=NNC(N)=S)c1ccccc1`, the melting point was in the range of 183 to 185 °C. To `COc1cccc2c1cc(C(=O)NCCc1ccncc1)n2Cc1cccc(C(=N)NO)c1` belongs 220 to 222 °C; to `Brc1ccc(N2CCN(CCCc3[nH]nc4c3CCCC4)CC2)cc1`, 145 to 147 °C; to `CC1(C)C(=O)N(c2ccc(C#N)c(Cl)c2)C(=O)N1CCCCCN1C(=O)N(c2ccc(C#N)c(Cl)c2)C(=O)C1(C)C`, 166 to 167 °C. To `COc1cc(F)ccc1-c1ccc(S(=O)(=O)N2c3ccccc3CC2C(=O)NCCOc2ccc(CC(=O)O)cc2)cc1` (stereo not drawn) belongs 102 to 110 °C; to `Cc1cc2c(cc1C(C)O)OCO2` (stereo not drawn), 61 to 62 °C; to `O=C(CC(CCCc1ccccc1)C(=O)O)c1ccc2c3c(oc2c1)CCCC3` (stereo not drawn), 142 to 144 °C. Compound `Nc1nc(N)c(-c2cc(Cl)cc(Cl)c2Cl)nc1CO` had a melting point of 185 to 186 °C. The same measure for `COc1ccc(-c2cc3ccccc3[nH]2)cc1NC(=S)N[C@H](C)c1ccccc1`: 179 to 181 °C; for `CCCN1CCN(c2cc3ccccc3c(=O)[nH]2)CC1CO` (stereo not drawn): 152 to 154 °C.
